Experimental findings from ChEMBL document CHEMBL1275404, “Disulfide cyclized tripeptide analogues of angiotensin IV as potent and selective inhibitors of insulin-regulated aminopeptidase (IRAP)” (J Med Chem, 2010) are described below.

This test addresses Aminopeptidase N (Homo sapiens, UniProt P15144). Put plainly: Inhibition of catalytic activity of human recombinant aminopeptidase N expressed in HEK293 cells. It is filed as cell-based.

Sequence of Aminopeptidase N (P15144 whole entry): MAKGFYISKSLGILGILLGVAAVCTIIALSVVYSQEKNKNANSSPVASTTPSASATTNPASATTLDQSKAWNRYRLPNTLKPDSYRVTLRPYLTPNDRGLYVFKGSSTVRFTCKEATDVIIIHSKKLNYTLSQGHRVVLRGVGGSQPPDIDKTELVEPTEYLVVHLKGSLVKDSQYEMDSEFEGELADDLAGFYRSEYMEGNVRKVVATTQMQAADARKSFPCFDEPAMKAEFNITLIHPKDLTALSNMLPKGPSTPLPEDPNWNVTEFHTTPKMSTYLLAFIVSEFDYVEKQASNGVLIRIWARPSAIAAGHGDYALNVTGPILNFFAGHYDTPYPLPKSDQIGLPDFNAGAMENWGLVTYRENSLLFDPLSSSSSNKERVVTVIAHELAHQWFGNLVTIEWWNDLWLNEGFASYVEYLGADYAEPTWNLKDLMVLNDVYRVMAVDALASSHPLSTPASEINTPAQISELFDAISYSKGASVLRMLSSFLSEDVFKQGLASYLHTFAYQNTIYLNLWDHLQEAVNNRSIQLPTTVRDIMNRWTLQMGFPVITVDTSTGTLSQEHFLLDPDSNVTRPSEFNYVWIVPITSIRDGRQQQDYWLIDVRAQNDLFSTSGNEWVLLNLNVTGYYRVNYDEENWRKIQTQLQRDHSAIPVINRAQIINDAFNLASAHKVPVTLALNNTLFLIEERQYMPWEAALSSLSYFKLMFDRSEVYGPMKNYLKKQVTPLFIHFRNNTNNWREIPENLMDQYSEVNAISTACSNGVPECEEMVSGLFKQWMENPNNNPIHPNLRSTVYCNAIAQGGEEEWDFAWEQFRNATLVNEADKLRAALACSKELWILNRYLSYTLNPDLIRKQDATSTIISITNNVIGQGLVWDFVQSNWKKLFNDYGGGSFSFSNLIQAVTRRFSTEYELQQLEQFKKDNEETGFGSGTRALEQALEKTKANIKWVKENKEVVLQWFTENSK

Broadly, the Ki is the dissociation constant of the complex between target and ligand, obtained from inhibition or displacement. `N[C@H]1CCSSC[C@@H](C(=O)NCc2ccccc2CC(=O)O)NC(=O)C[C@H](Cc2ccc(O)cc2)NC1=O`: the Ki was determined as 7.25 µM.

On to `N[C@H]1CCSSC[C@H](C(=O)NCc2ccccc2CC(=O)O)NC(=O)C[C@H](Cc2ccc(O)cc2)NC1=O`, for which the inhibition constant (Ki) is 10.8 µM.
